Columns and labels:
DU-4475 [1] = test: drug sensitivity score (DSS), CellTox Green (DSS (AUC-based score)); higher = stronger drug effect (viability inhibition or cytotoxicity); extreme values may be limits of the assay; conditions: incubation time: 72 h
Outline: (§1)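 Each compound occupied 5 concentrations in 10-fold steps over its own 10,000-fold range in 384-well plates, into which breast cancer cell lines were seeded as 20 µl suspension. Following 72 h of incubation, CellTox Green fluorescence (485/520 nm) was measured, and CellTiter-Glo luminescence was measured after 10 min at room temperature. Plates were individually normalised to 0.1 % DMSO and a positive kill control. From the area under the fitted dose-response curve, a drug sensitivity score was calculated.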

MDA-MB-453 [2] = test: as above; conditions: incubation time: 72 h
Outline: as §1

CAL-148 [3] = test: as above; conditions: incubation time: 72 h
Outline: as §1

HCC1599 = test: as above; conditions: incubation time: 72 h
Outline: as §1

CAL-85-1 [4] = test: as above; conditions: incubation time: 72 h
Outline: as §1

MFM-223 [5] = test: as above; conditions: incubation time: 72 h
Outline: as §1

HDQ-P1 [6] = test: as above; conditions: incubation time: 72 h
Outline: as §1

MDA-MB-436 [7] = test: as above; conditions: incubation time: 72 h
Outline: as §1

HCC1143 [8] = test: as above; conditions: incubation time: 72 h
Outline: as §1

MCF-10A [9] = test: as above; conditions: incubation time: 72 h
Outline: as §1

MDA-MB-468 [10] = test: as above; conditions: incubation time: 72 h
Outline: as §1

BT-549 [11] = test: as above; conditions: incubation time: 72 h
Outline: as §1

CAL-51 [12] = test: as above; conditions: incubation time: 72 h
Outline: as §1

BT-474 [13] = test: as above; conditions: incubation time: 72 h
Outline: as §1

HCC1937 = test: as above; conditions: incubation time: 72 h
Outline: as §1

CAL-120 [14] = test: as above; conditions: incubation time: 72 h
Outline: as §1

MDA-MB-231 [15] = test: as above; conditions: incubation time: 72 h
Outline: as §1

Hs578T = test: as above; conditions: incubation time: 72 h
Outline: as §1

DU-4475 [16] = conditions: 72 h
Outline: (§2)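 Compound dissolved in 5 µl medium was placed in 384-well plates before 20 µl of breast cancer cell suspension was added, and the plates were incubated for 72 h. Cells then received 2.5 µl CellTiter-Blue for 2 h at 37 °C, and fluorescence was read at 560/590 nm. EC50 values come from percent-inhibition dose-response fits that were censored at the highest concentration, with plates normalised to vehicle and a positive kill control and rows with a zero drug sensitivity score excluded.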

MDA-MB-453 [17] = conditions: 72 h
Outline: as §2

CAL-148 [18] = conditions: 72 h
Outline: as §2

CAL-85-1 [19] = conditions: 72 h
Outline: as §2

HDQ-P1 [20] = conditions: 72 h
Outline: as §2

CAL-51 [21] = conditions: 72 h
Outline: as §2

DU-4475 [22] = conditions: 72 h; remark: listed apart in the source
Outline: (§3)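 EC50 was fitted from dose-response curves and censored at the highest concentration tested. To build those curves, breast cancer cell lines (20 µl suspension) were seeded into 384-well plates containing compound at 5 concentrations in 10-fold steps over a compound-specific 10,000-fold range and incubated for 72 h. Readouts were CellTox Green fluorescence (485/520 nm) for cell death and then CellTiter-Glo luminescence for viability, with each plate normalised to 0.1 % DMSO and a positive kill control.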

MDA-MB-436 [23] = conditions: 72 h
Outline: as §3

HCC1143 [24] = conditions: 72 h
Outline: as §3

CAL-51 [25] = conditions: 72 h; remark: listed apart in the source
Outline: as §3

MFM-223 [26] = conditions: 72 h
Outline: as §3

SK-BR-3 = conditions: 72 h
Outline: as §3

MCF-10A [27] = conditions: 72 h
Outline: as §3

MDA-MB-468 [28] = conditions: 72 h
Outline: as §3

BT-549 [29] = conditions: 72 h
Outline: as §3

BT-474 [30] = conditions: 72 h
Outline: as §3

CAL-120 [31] = conditions: 72 h
Outline: as §3

MDA-MB-231 [32] = conditions: 72 h
Outline: as §3

Row | EC50, CellTiter-Glo (MDA-MB-468 [28]) [nM] | EC50, CellTiter-Glo (BT-474 [30]) [nM] | EC50, CellTiter-Glo (MDA-MB-231 [32]) [nM] | Structure (SMILES) | drug sensitivity score (DU-4475 [1]) | drug sensitivity score (MDA-MB-453 [2]) | drug sensitivity score (CAL-148 [3]) | drug sensitivity score (HCC1599) | drug sensitivity score (CAL-85-1 [4]) | drug sensitivity score (MFM-223 [5]) | drug sensitivity score (HDQ-P1 [6]) | drug sensitivity score (MDA-MB-436 [7]) | drug sensitivity score (HCC1143 [8]) | drug sensitivity score (MCF-10A [9]) | drug sensitivity score (MDA-MB-468 [10]) | drug sensitivity score (BT-549 [11]) | drug sensitivity score (CAL-51 [12]) | drug sensitivity score (BT-474 [13]) | drug sensitivity score (HCC1937) | drug sensitivity score (CAL-120 [14]) | drug sensitivity score (MDA-MB-231 [15]) | drug sensitivity score (Hs578T) | EC50, CellTiter-Blue viability (DU-4475 [16]) [nM] | EC50, CellTiter-Blue viability (MDA-MB-453 [17]) [nM] | EC50, CellTiter-Blue viability (CAL-148 [18]) [nM] | EC50, CellTiter-Blue viability (CAL-85-1 [19]) [nM] | EC50, CellTiter-Blue viability (HDQ-P1 [20]) [nM] | EC50, CellTiter-Blue viability (CAL-51 [21]) [nM] | EC50, CellTiter-Glo (DU-4475 [22]) [nM] | EC50, CellTiter-Glo (MDA-MB-436 [23]) [nM] | EC50, CellTiter-Glo (HCC1143 [24]) [nM] | EC50, CellTiter-Glo (CAL-51 [25]) [nM] | EC50, CellTiter-Glo (MFM-223 [26]) [nM] | EC50, CellTiter-Glo (SK-BR-3) [nM] | EC50, CellTiter-Glo (MCF-10A [27]) [nM] | EC50, CellTiter-Glo (BT-549 [29]) [nM] | EC50, CellTiter-Glo (CAL-120 [31]) [nM]
1 |  |  |  | O=C1c2c(O)ccc(O)c2C(=O)c2c(NCCNCCO)ccc(NCCNCCO)c21 [Mitoxantrone] | 0 | 0 | 3.55 | 0 | 0 | 0 | 0 | 0 | 0 | 0 | 0 | 0 | 3.21 | 0 | 0 | 0 | 0 | 0 | 8.91 | 539 | 26.2 | 182 | 58.6 | 10.7 | 988 | 495 | 314 | 975 |  |  |  |  | 
2 |  |  |  | O=C(NC[C@H](O)CO)c1ccncc1Nc1ccc(I)cc1F |  |  |  |  |  |  |  |  |  |  |  |  |  |  |  |  |  |  | 11.7 | 4980 | 9.85 | 1660 | 161 | 663 |  |  |  |  |  |  |  |  | 
3 | 25.2 | 912 | 2480 | CO[C@@H](C(=O)N1Cc2[nH]nc(NC(=O)c3ccc(N4CCN(C)CC4)cc3)c2C1)c1ccccc1 [Danusertib] | 0 | 0 | 0 | 0 | 0 | 0 | 0.964 | 3.88 | 0 | 0.832 | 13.7 | 1.26 | 13.8 | 0 | 1.64 | 3.17 | 0 | 15.2 | 538 | 40.9 | 21.6 | 435 | 427 | 348 | 1530 | 1090 | 8380 | 780 | 86.5 |  | 628 | 882 | 2860
4 | 50.7 | 58.6 | 65.4 | Cn1cc(CNCC2CCN(c3ncc(C(=O)NO)cn3)CC2)c2ccccc21 [Quisinostat] | 2.71 | 0.347 | 14.8 | 1.48 | 20.1 | 4.71 | 1.56 | 0 | 2.18 | 0 | 18.9 | 0 | 10.9 | 11 | 0 | 13.6 | 13.6 | 13.2 |  |  |  |  |  |  | 24 | 50.9 | 21.5 | 78.7 | 70.7 | 21.4 | 92.8 | 81.8 | 74.2
5 |  |  |  | CCC/C=C/C=C/C(=O)O[C@H]1/C(=C/C(=O)OC)C[C@H]2C[C@H]([C@@H](C)O)OC(=O)C[C@H](O)C[C@@H]3C[C@H](OC(C)=O)C(C)(C)[C@](O)(C[C@@H]4C/C(=C/C(=O)OC)C[C@H](/C=C/C(C)(C)[C@]1(O)O2)O4)O3 [Bryostatin 1] | 0 | 0 | 0 | 0 | 0 | 0 | 10.8 |  | 0 | 0 | 0 | 0 | 0 | 0 | 4.81 | 0 | 0 | 0 |  |  | > 100 | > 100 |  |  |  |  |  | 0.32 |  | 0.1 |  | > 100 | 

Row | Structure (SMILES) | EC50, CellTiter-Glo (MDA-MB-468 [28]) [nM] | EC50, CellTiter-Glo (BT-474 [30]) [nM] | EC50, CellTiter-Glo (MDA-MB-231 [32]) [nM] | drug sensitivity score (DU-4475 [1]) | drug sensitivity score (MDA-MB-453 [2]) | drug sensitivity score (CAL-148 [3]) | drug sensitivity score (HCC1599) | drug sensitivity score (CAL-85-1 [4]) | drug sensitivity score (MFM-223 [5]) | drug sensitivity score (HDQ-P1 [6]) | drug sensitivity score (MDA-MB-436 [7]) | drug sensitivity score (HCC1143 [8]) | drug sensitivity score (MCF-10A [9]) | drug sensitivity score (MDA-MB-468 [10]) | drug sensitivity score (BT-549 [11]) | drug sensitivity score (CAL-51 [12]) | drug sensitivity score (BT-474 [13]) | drug sensitivity score (HCC1937) | drug sensitivity score (CAL-120 [14]) | drug sensitivity score (MDA-MB-231 [15]) | drug sensitivity score (Hs578T) | EC50, CellTiter-Blue viability (DU-4475 [16]) [nM] | EC50, CellTiter-Blue viability (MDA-MB-453 [17]) [nM] | EC50, CellTiter-Blue viability (CAL-148 [18]) [nM] | EC50, CellTiter-Blue viability (CAL-85-1 [19]) [nM] | EC50, CellTiter-Blue viability (HDQ-P1 [20]) [nM] | EC50, CellTiter-Blue viability (CAL-51 [21]) [nM] | EC50, CellTiter-Glo (DU-4475 [22]) [nM] | EC50, CellTiter-Glo (MDA-MB-436 [23]) [nM] | EC50, CellTiter-Glo (HCC1143 [24]) [nM] | EC50, CellTiter-Glo (CAL-51 [25]) [nM] | EC50, CellTiter-Glo (MFM-223 [26]) [nM] | EC50, CellTiter-Glo (SK-BR-3) [nM] | EC50, CellTiter-Glo (MCF-10A [27]) [nM] | EC50, CellTiter-Glo (BT-549 [29]) [nM] | EC50, CellTiter-Glo (CAL-120 [31]) [nM]
6 | C[C@]12O[C@H](C[C@]1(O)CO)n1c3ccccc3c3c4c(c5c6ccccc6n2c5c31)CNC4=O [Lestaurtinib] | 25.2 | 151 | 188 | 0 | 0 | 0 | 4.55 | 5.21 | 0 | 0 | 8.14 | 0 | 0 | 0 | 2.26 | 0 | 0.706 | 0 | 0 | 0.0124 | 4.21 | 186 | 174 |  | 284 |  | 330 | 188 | 787 | 68.7 | > 1000 | 263 | 215 | 215 | 130 | 45.1
